The target in test [1] is T1, human GFAT-1 (Homo sapiens, UniProt Q06210).
T1 construct: gene GFPT1; full length isoform 2, internal His6-tag inserted between Gly299 and Asp300 (kept), initial Met removed, Sf21 baculovirus (MultiBac), Ni-NTA and SEC; phosphorylated S243 found; dimer in crystal
The test can be described thus: X-ray crystal structure (crystallized with Frc6P). In kind it is binding. To be noted: isomerase site; linear Glc6P modelled, Frc6P not excluded at this resolution.

In test [2] the target is T1, human GFAT-1. Nature of the test: X-ray crystal structure (soaking). Format: binding. To be noted: 5 mM soak, 2 h; UDP-GlcNAc site of isomerase domain; inhibition curve in the GDH-coupled assay only in Figure 4g.
Test [3] deals with T1, human GFAT-1. Nature of the test: X-ray crystal structure (co-crystallization). Format: binding.
Test [4] has as its target T1, human GFAT-1. The test can be described thus: GDH-coupled glutaminase (amidohydrolysis) assay, […] nm. In kind it is biochemical. The conditions noted are these: 10 mM L-Gln, 6 mM Frc6P, 1 mM APAD, 1 mM EDTA, 50 mM KCl, 100 mM potassium phosphate pH 7.5, 37 °C; feedback inhibitor bound at isomerase domain (allosteric).

T1 sequence (Q06210 2-681 isoform Q06210-2): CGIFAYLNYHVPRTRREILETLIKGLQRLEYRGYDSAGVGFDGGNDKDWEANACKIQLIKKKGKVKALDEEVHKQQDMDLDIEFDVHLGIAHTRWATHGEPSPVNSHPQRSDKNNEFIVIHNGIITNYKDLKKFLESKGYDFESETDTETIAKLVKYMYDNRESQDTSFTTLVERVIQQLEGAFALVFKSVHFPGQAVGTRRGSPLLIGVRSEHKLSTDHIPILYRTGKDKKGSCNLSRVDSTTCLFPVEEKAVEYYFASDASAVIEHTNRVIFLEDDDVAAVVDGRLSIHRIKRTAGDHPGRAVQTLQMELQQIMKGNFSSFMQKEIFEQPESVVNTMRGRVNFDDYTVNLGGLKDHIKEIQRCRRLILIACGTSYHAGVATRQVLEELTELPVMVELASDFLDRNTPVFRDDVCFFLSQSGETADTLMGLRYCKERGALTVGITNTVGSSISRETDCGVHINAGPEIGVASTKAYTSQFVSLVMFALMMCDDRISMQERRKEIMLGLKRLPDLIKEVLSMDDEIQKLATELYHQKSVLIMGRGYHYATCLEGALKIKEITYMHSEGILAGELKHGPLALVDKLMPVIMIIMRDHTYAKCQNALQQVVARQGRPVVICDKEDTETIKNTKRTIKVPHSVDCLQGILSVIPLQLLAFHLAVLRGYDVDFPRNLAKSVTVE

Regarding `O=P(O)(O)OC[C@H]1OC(O)[C@H](O)[C@@H](O)[C@@H]1O` (some centres unmarked) [Glc6P], at human GFAT-1 [1], the “X-ray crystal structure (crystallized with Frc6P)” value is given as “we decided to model the product Glc6P in our crystal structures”.

Consider `CC(=O)N[C@H]1[C@@H](OP(=O)(O)OP(=O)(O)OC[C@H]2O[C@@H](n3ccc(=O)[nH]c3=O)[C@H](O)[C@@H]2O)O[C@H](CO)[C@H](O)[C@@H]1O` [UDP-GalNAc], for which the “X-ray crystal structure (soaking)” value on human GFAT-1 [2] was “UDP-GalNAc was detected in the UDP-GlcNAc binding site after crystal soaking”.

For `N[C@@H](CCC(=O)O)C(=O)O` [L-Glu], on human GFAT-1 [3] (50 mM L-Glu, glutaminase site of monomer A only), the “X-ray crystal structure (co-crystallization)” value is listed as “The product L-Glu is bound to the glutaminase active site in one monomer (monomer A)”.

As to `N[C@H]1C(O)O[C@H](COP(=O)(O)O)[C@@H](O)[C@@H]1O` (stereo partly drawn) [D-GlcN6P], at human GFAT-1 [3] (1 mM GlcN6P, with L-Glu, linear sugar in isomerase site), the “X-ray crystal structure (co-crystallization)” value is “The GlcN6P-bound structure formed the same asymmetric dimer as the Glc6P-bound structure”.

For `CC(=O)N[C@H]1[C@@H](OP(=O)(O)OP(=O)(O)OC[C@H]2O[C@@H](n3ccc(=O)[nH]c3=O)[C@H](O)[C@@H]2O)O[C@H](CO)[C@@H](O)[C@@H]1O` [UDP-GlcNAc], on human GFAT-1 [4], the IC50 is reported as 43.3 (−2.3/+2.5) µM.

Values taken from article PMC7000685, “Loss of GFAT-1 feedback regulation activates the hexosamine pathway that modulates protein homeostasis” (Nature Communications, 2020).
